Source: paper PMC7156458, “Synthetic biology based construction of biological activity-related library of fungal decalin-containing diterpenoid pyrones” (Nature Communications, 2020)

Biological target: Aβ42 (Homo sapiens, UniProt P05067)
Assay: Th-T (thioflavin-T) assay of Aβ42 aggregation
Format: biochemical

Chain of Aβ42 (P05067 672-713): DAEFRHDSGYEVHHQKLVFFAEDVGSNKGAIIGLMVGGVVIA

C=C1CCC2C(C)(CCC=C(C)C)C(O)CCC2(C)C1Cc1c(OC)oc(CO)c(C(=O)OC)c1=O (stereo not drawn) [Compound 13]
Fig. 7a Th-T reading, mean of three wells (column suffix _20, reading M101): 1.039
Fig. 7a Th-T reading, mean of three wells (column suffix _20, reading M102): 1.036
Fig. 7a Th-T reading, mean of three wells (column suffix _20, reading M103): 1.04
Fig. 7a Th-T reading, mean of three wells (column suffix _20, reading M104): 1.043
Fig. 7a Th-T reading, mean of three wells (column suffix _20, reading M105): 1.05
Fig. 7a Th-T reading, mean of three wells (column suffix _20, reading M106): 1.043
Th-T fluorescence, mean of three wells (Fig. 7a) (column suffix _50, measurement M19): 0.2105
Th-T fluorescence, mean of three wells (Fig. 7a) (column suffix _50, measurement M20): 0.229
Th-T fluorescence, mean of three wells (Fig. 7a) (column suffix _50, measurement M21): 0.2537
Th-T fluorescence, mean of three wells (Fig. 7a) (column suffix _50, measurement M22): 0.2749
Th-T fluorescence, mean of three wells (Fig. 7a) (column suffix _50, measurement M23): 0.2968
Th-T fluorescence, mean of three wells (Fig. 7a) (column suffix _50, measurement M24): 0.3154
Th-T fluorescence, mean of three wells (Fig. 7a) (column suffix _50, measurement M25): 0.3353
Th-T fluorescence, mean of three wells (Fig. 7a) (column suffix _50, measurement M26): 0.3518
Th-T fluorescence, mean of three wells (Fig. 7a) (column suffix _50, measurement M27): 0.3638
Th-T fluorescence, mean of three wells (Fig. 7a) (column suffix _50, measurement M28): 0.3753
Th-T fluorescence, mean of three wells (Fig. 7a) (column suffix _50, measurement M29): 0.3846
Th-T assay signal, mean of three wells (Fig. 7a) (column suffix _50, reading M1): 0.5109
Th-T assay signal, mean of three wells (Fig. 7a) (column suffix _50, reading M2): 0.3694
Th-T assay signal, mean of three wells (Fig. 7a) (column suffix _50, reading M3): 0.2987
Th-T assay signal, mean of three wells (Fig. 7a) (column suffix _50, reading M4): 0.2463
Th-T assay signal, mean of three wells (Fig. 7a) (column suffix _50, reading M5): 0.2182
Th-T assay signal, mean of three wells (Fig. 7a) (column suffix _50, reading M6): 0.2003
Th-T assay signal, mean of three wells (Fig. 7a) (column suffix _50, reading M7): 0.1883
Th-T assay signal, mean of three wells (Fig. 7a) (column suffix _50, reading M8): 0.1784
Th-T assay signal, mean of three wells (Fig. 7a) (column suffix _50, reading M9): 0.17
Th-T assay signal, mean of three wells (Fig. 7a) (column suffix _50, reading M10): 0.1689
Th-T assay signal, mean of three wells (Fig. 7a) (column suffix _50, reading M11): 0.1659
Th-T assay signal, mean of three wells (Fig. 7a) (column suffix _50, reading M12): 0.1664
Th-T assay signal, mean of three wells (Fig. 7a) (column suffix _50, reading M13): 0.1648
Th-T assay signal, mean of three wells (Fig. 7a) (column suffix _50, reading M14): 0.1691
Th-T assay signal, mean of three wells (Fig. 7a) (column suffix _50, reading M15): 0.173
Th-T assay signal, mean of three wells (Fig. 7a) (column suffix _50, reading M16): 0.1783
Th-T assay signal, mean of three wells (Fig. 7a) (column suffix _50, reading M17): 0.1848
Th-T assay signal, mean of three wells (Fig. 7a) (column suffix _50, reading M18): 0.1952
Fig. 7a Th-T reading, mean of three wells (column suffix _50, reading M85): 0.4685
Fig. 7a Th-T reading, mean of three wells (column suffix _50, reading M86): 0.4692
Fig. 7a Th-T reading, mean of three wells (column suffix _50, reading M87): 0.4718
Fig. 7a Th-T reading, mean of three wells (column suffix _50, reading M88): 0.4737
Fig. 7a Th-T reading, mean of three wells (column suffix _50, reading M89): 0.4759
Fig. 7a Th-T reading, mean of three wells (column suffix _50, reading M90): 0.4735
Fig. 7a Th-T reading, mean of three wells (column suffix _50, reading M91): 0.4713
Fig. 7a Th-T reading, mean of three wells (column suffix _50, reading M92): 0.4706
Fig. 7a Th-T reading, mean of three wells (column suffix _50, reading M93): 0.4737
Fig. 7a Th-T reading, mean of three wells (column suffix _50, reading M94): 0.4775
Fig. 7a Th-T reading, mean of three wells (column suffix _50, reading M95): 0.4772
Fig. 7a Th-T reading, mean of three wells (column suffix _50, reading M96): 0.4744
Fig. 7a Th-T reading, mean of three wells (column suffix _50, reading M97): 0.4689
Fig. 7a Th-T reading, mean of three wells (column suffix _50, reading M98): 0.4718
Fig. 7a Th-T reading, mean of three wells (column suffix _50, reading M99): 0.4742
Fig. 7a Th-T reading, mean of three wells (column suffix _50, reading M100): 0.4783
Fig. 7a Th-T reading, mean of three wells (column suffix _50, reading M101): 0.4707
Fig. 7a Th-T reading, mean of three wells (column suffix _50, reading M102): 0.471
Fig. 7a Th-T reading, mean of three wells (column suffix _50, reading M103): 0.4747
Fig. 7a Th-T reading, mean of three wells (column suffix _50, reading M104): 0.4762
Fig. 7a Th-T reading, mean of three wells (column suffix _50, reading M105): 0.477
Fig. 7a Th-T reading, mean of three wells (column suffix _50, reading M106): 0.4781
Th-T fluorescence, mean of three wells (compound at 10, reading M41 of time course): 1.211
Th-T fluorescence, mean of three wells (compound at 10, reading M42 of time course): 1.2969
Th-T fluorescence, mean of three wells (compound at 10, reading M43 of time course): 1.3329
Th-T fluorescence, mean of three wells (compound at 10, reading M44 of time course): 1.377
Th-T fluorescence, mean of three wells (compound at 10, reading M45 of time course): 1.405
Th-T fluorescence, mean of three wells (compound at 10, reading M46 of time course): 1.436
Th-T fluorescence, mean of three wells (compound at 10, reading M47 of time course): 1.47
Th-T fluorescence, mean of three wells (compound at 10, reading M48 of time course): 1.487
Th-T fluorescence, mean of three wells (compound at 10, reading M49 of time course): 1.496
Th-T fluorescence, mean of three wells (compound at 10, reading M50 of time course): 1.5062
Th-T fluorescence, mean of three wells (compound at 10, reading M51 of time course): 1.523
Th-T fluorescence, mean of three wells (compound at 10, reading M52 of time course): 1.537
Th-T fluorescence, mean of three wells (compound at 10, reading M53 of time course): 1.531
Th-T fluorescence, mean of three wells (compound at 10, reading M54 of time course): 1.542
Th-T fluorescence, mean of three wells (compound at 10, reading M55 of time course): 1.541
Th-T fluorescence, mean of three wells (compound at 10, reading M56 of time course): 1.545
Th-T fluorescence, mean of three wells (compound at 10, reading M57 of time course): 1.551
Th-T fluorescence, mean of three wells (compound at 10, reading M58 of time course): 1.551
Th-T fluorescence, mean of three wells (compound at 10, reading M59 of time course): 1.549
Th-T fluorescence, mean of three wells (compound at 10, reading M60 of time course): 1.541
Th-T fluorescence, mean of three wells (compound at 10, reading M61 of time course): 1.554
Th-T fluorescence, mean of three wells (compound at 10, reading M62 of time course): 1.56
Th-T fluorescence, mean of three wells (compound at 20, reading M41 of time course): 0.3859
Th-T fluorescence, mean of three wells (compound at 20, reading M42 of time course): 0.4228
Th-T fluorescence, mean of three wells (compound at 20, reading M43 of time course): 0.4511
Th-T fluorescence, mean of three wells (compound at 20, reading M44 of time course): 0.4829
Th-T fluorescence, mean of three wells (compound at 20, reading M45 of time course): 0.5147
Th-T fluorescence, mean of three wells (compound at 20, reading M46 of time course): 0.5564
Th-T fluorescence, mean of three wells (compound at 20, reading M47 of time course): 0.5957
Th-T fluorescence, mean of three wells (compound at 20, reading M48 of time course): 0.6248
Th-T fluorescence, mean of three wells (compound at 20, reading M49 of time course): 0.6553
Th-T fluorescence, mean of three wells (compound at 20, reading M50 of time course): 0.6948
Th-T fluorescence, mean of three wells (compound at 20, reading M51 of time course): 0.7326
Th-T fluorescence, mean of three wells (compound at 20, reading M52 of time course): 0.7726
Th-T fluorescence, mean of three wells (compound at 20, reading M53 of time course): 0.8004
Th-T fluorescence, mean of three wells (compound at 20, reading M54 of time course): 0.8343
Th-T fluorescence, mean of three wells (compound at 20, reading M55 of time course): 0.8641
Th-T fluorescence, mean of three wells (compound at 20, reading M56 of time course): 0.9063
Th-T fluorescence, mean of three wells (compound at 20, reading M57 of time course): 0.941
Th-T fluorescence, mean of three wells (compound at 20, reading M58 of time course): 0.9604
Th-T fluorescence, mean of three wells (compound at 20, reading M59 of time course): 0.9808
Th-T fluorescence, mean of three wells (compound at 20, reading M60 of time course): 0.9918
Th-T fluorescence, mean of three wells (compound at 20, reading M61 of time course): 1.018
Th-T fluorescence, mean of three wells (compound at 20, reading M62 of time course): 1.031
Th-T fluorescence, mean of three wells (compound at 50, reading M41 of time course): 0.4483
Th-T fluorescence, mean of three wells (compound at 50, reading M42 of time course): 0.4529
Th-T fluorescence, mean of three wells (compound at 50, reading M43 of time course): 0.452
Th-T fluorescence, mean of three wells (compound at 50, reading M44 of time course): 0.4555
Th-T fluorescence, mean of three wells (compound at 50, reading M45 of time course): 0.4534
Th-T fluorescence, mean of three wells (compound at 50, reading M46 of time course): 0.4569
Th-T fluorescence, mean of three wells (compound at 50, reading M47 of time course): 0.4654
Th-T fluorescence, mean of three wells (compound at 50, reading M48 of time course): 0.4625
Th-T fluorescence, mean of three wells (compound at 50, reading M49 of time course): 0.4637
Th-T fluorescence, mean of three wells (compound at 50, reading M50 of time course): 0.4613
Th-T fluorescence, mean of three wells (compound at 50, reading M51 of time course): 0.4698
Th-T fluorescence, mean of three wells (compound at 50, reading M52 of time course): 0.4696
Th-T fluorescence, mean of three wells (compound at 50, reading M53 of time course): 0.4691
